From patent US8871934B2, “Fluorene compound and pharmaceutical use thereof” (Japan Tobacco Inc., priority 2008, dated 2014) come the findings set out here.

Structures are written as SMILES. Where two headings read alike, the source gives them in different places.

This experiment addresses human PDHK2 (hPDHK2) (Homo sapiens (Human), UniProt Q15119). Briefly: Inhibitory action of PDHK activity in vitro (kinase reaction, residual PDH activity measured). In kind it is biochemical.
[1] abbreviates: PDHK inhibitory activity, class symbol of IC50.
Where [2] appears, read: read-out: PDHK inhibitory activity IC50.

In general, IC50 refers to the concentration needed to halve the response being measured.

On to `CC(C)C(=O)Nc1ccc2c(c1)-c1ccccc1C2(O)C(F)(F)F` (centres unmarked) [compound 101], for which the concentration for half-maximal inhibition (IC50) is, setting by setting: under setting [1], more than 1000 nM; under setting [2], 10300 nM.
On the same counts, the results for `OC1(C(F)(F)F)c2ccccc2-c2ccc(-c3cccnc3)cc21` (centres unmarked) [compound 102] are 100 to 1000 nM and 323 nM.
On the same counts, the results for `OC1(C(F)(F)F)c2ccccc2-c2ccc(-c3ccncc3)cc21` (centres unmarked) [compound 103] are 100 to 1000 nM and 151 nM.
For `CCOC1CN(C(=O)c2ccc3c(c2)C(O)(C(F)(F)F)c2ccccc2-3)C1` (centres unmarked) [compound 104], in that order: 100 to 1000 nM and 279 nM.
Regarding `CCCOC1CN(C(=O)c2ccc3c(c2)C(O)(C(F)(F)F)c2ccccc2-3)C1` (centres unmarked) [compound 105], the IC50 under setting [1] fell in the range of 100 to 1000 nM and the IC50 under setting [2] worked out at 259 nM.
For `COCCOC1CN(C(=O)c2ccc3c(c2)C(O)(C(F)(F)F)c2ccccc2-3)C1` (centres unmarked) [compound 106], in that order: 100 to 1000 nM and 461 nM.
On the same counts, the results for `O=C(O)COC1CN(C(=O)c2ccc3c(c2)C(O)(C(F)(F)F)c2ccccc2-3)C1` (centres unmarked) [compound 107] are more than 1000 nM and 2610 nM.
On the same counts, the results for `O=C(c1ccc2c(c1)C(O)(C(F)(F)F)c1ccccc1-2)N1CC(OCCO)C1` (centres unmarked) [compound 108] are 100 to 1000 nM and 462 nM.
With `O=C(c1ccc2c(c1)C(O)(C(F)(F)F)c1ccccc1-2)C1CCCC1` (centres unmarked) [compound 109], the IC50 is more than 1000 nM under setting [1] and 1320 nM under setting [2].
On the same counts, the results for `CC(C)Oc1ccc2c(c1)C(O)(C(F)(F)F)c1ccccc1-2` (centres unmarked) [compound 110] are more than 1000 nM and 2490 nM.
On the same counts, the results for `O=C(c1cccc2c1-c1ccccc1C2(O)C(F)(F)F)N1CC1` (centres unmarked) [compound 111] are more than 1000 nM and more than 10000 nM.
For `OC1(C(F)(F)F)c2ccccc2-c2ccc(-c3ccccn3)cc21` (centres unmarked) [compound 112], in that order: more than 1000 nM and 1230 nM.
In the case of `OC1(C(F)(F)F)c2ccccc2-c2c(Br)cccc21` (centres unmarked) [compound 113], the IC50 is more than 1000 nM under setting [1] and 1110 nM under setting [2].
On the same counts, the results for `O=C(c1cc(Br)c2c(c1)C(O)(C(F)(F)F)c1ccccc1-2)N1CCC1` (centres unmarked) [compound 114] are less than 100 nM and 51 nM.
For `COC(=O)COC1CN(C(=O)c2ccc3c(c2)C(O)(C(F)(F)F)c2ccccc2-3)C1` (centres unmarked) [compound 115], in that order: 100 to 1000 nM and 417 nM.
For the compound `NC(=O)COC1CN(C(=O)c2ccc3c(c2)C(O)(C(F)(F)F)c2ccccc2-3)C1` (centres unmarked) [compound 116], the IC50 runs as follows: under setting [1], 100 to 1000 nM; under setting [2], 601 nM.
`CNC(=O)COC1CN(C(=O)c2ccc3c(c2)C(O)(C(F)(F)F)c2ccccc2-3)C1` (centres unmarked) [compound 117]: the IC50 was 100 to 1000 nM under setting [1] and 909 nM under setting [2].
On the same counts, the results for `CN(C)C(=O)COC1CN(C(=O)c2ccc3c(c2)C(O)(C(F)(F)F)c2ccccc2-3)C1` (centres unmarked) [compound 118] are 100 to 1000 nM and 839 nM.
For `O=C(c1ccc2c(c1)C(O)(C(F)(F)F)c1ccccc1-2)C1CCC1` (centres unmarked) [compound 119], in that order: more than 1000 nM and 1000 nM.
On the same counts, the results for `COC(=O)C1CN(C(=O)c2ccc3c(c2)C(O)(C(F)(F)F)c2ccccc2-3)C1` (centres unmarked) [compound 120] are 100 to 1000 nM and 174 nM.
In the case of `O=C(O)C1CN(C(=O)c2ccc3c(c2)C(O)(C(F)(F)F)c2ccccc2-3)C1` (centres unmarked) [compound 121], the IC50 is, setting by setting: under setting [1], more than 1000 nM; under setting [2], 3680 nM.
On the same counts, the results for `CC(=O)c1cc(C(=O)N2CCC2)cc2c1-c1ccccc1C2(O)C(F)(F)F` (centres unmarked) [compound 122] are less than 100 nM and 49 nM.
Regarding `NC(=O)C1CN(C(=O)c2ccc3c(c2)C(O)(C(F)(F)F)c2ccccc2-3)C1` (centres unmarked) [compound 123], the IC50 under setting [1] was in the range of 100 to 1000 nM and the 50% inhibitory concentration (IC50) under setting [2] is 877 nM.
On the same counts, the results for `CNC(=O)C1CN(C(=O)c2ccc3c(c2)C(O)(C(F)(F)F)c2ccccc2-3)C1` (centres unmarked) [compound 124] are 100 to 1000 nM and 736 nM.
On the same counts, the results for `CN(C)C(=O)C1CN(C(=O)c2ccc3c(c2)C(O)(C(F)(F)F)c2ccccc2-3)C1` (centres unmarked) [compound 125] are 100 to 1000 nM and 227 nM.
For `OC1(C(F)(F)F)c2ccccc2-c2c(-c3ccccc3)cccc21` (centres unmarked) [compound 126], in that order: more than 1000 nM and more than 10000 nM.
Turning to `O=C(c1ccc2c(c1)C(O)(C(F)(F)F)c1ccccc1-2)N1CCOCC1` (centres unmarked) [compound 127], the IC50 is more than 1000 nM under setting [1] and more than 10000 nM under setting [2].
On the same counts, the results for `OC1(C(F)(F)F)c2ccccc2-c2ccc(OC3CCC3)cc21` (centres unmarked) [compound 128] are more than 1000 nM and 2400 nM.
For `OC1(C(F)(F)F)c2ccccc2-c2ccc(-c3cccc(F)c3)cc21` (centres unmarked) [compound 129], the IC50 reads like this: under setting [1], 100 to 1000 nM; under setting [2], 864 nM.
On the same counts, the results for `COC(=O)Nc1cccc2c1-c1ccccc1C2(O)C(F)(F)F` (centres unmarked) [compound 130] are more than 1000 nM and more than 10000 nM.
Consider `OC1(C(F)(F)F)c2ccccc2-c2c(-c3ncco3)cccc21` (centres unmarked) [compound 131], for which the IC50 is more than 1000 nM under setting [1] and more than 10000 nM under setting [2].
On the same counts, the results for `OC1(C(F)(F)F)c2ccccc2-c2ccc(-c3cccc(Cl)c3)cc21` (centres unmarked) [compound 132] are 100 to 1000 nM and 694 nM.
On the same counts, the results for `CN(C)C1CN(C(=O)c2ccc3c(c2)C(O)(C(F)(F)F)c2ccccc2-3)C1` (centres unmarked) [compound 133] are more than 1000 nM and 2500 nM.
On the same counts, the results for `OC1(C(F)(F)F)c2ccccc2-c2c(-c3ccccn3)cccc21` (centres unmarked) [compound 134] are more than 1000 nM and more than 10000 nM.
Turning to `Cc1cccc(-c2ccc3c(c2)C(O)(C(F)(F)F)c2ccccc2-3)c1` (centres unmarked) [compound 137], the IC50 runs as follows: under setting [1], more than 1000 nM; under setting [2], 1010 nM.
As for `C=C(C)c1cccc2c1-c1ccccc1C2(O)C(F)(F)F` (centres unmarked) [compound 138], the IC50 reads like this: under setting [1], more than 1000 nM; under setting [2], more than 10000 nM.
On the same counts, the results for `OC1(C(F)(F)F)c2ccccc2-c2c(-c3ccncc3)cccc21` (centres unmarked) [compound 139] are more than 1000 nM and more than 10000 nM.
Take `OC1(C(F)(F)F)c2ccccc2-c2c(-c3nnco3)cccc21` (centres unmarked) [compound 140]: the IC50 runs as follows: under setting [1], more than 1000 nM; under setting [2], 2400 nM.
For `N#Cc1cc(C(=O)N2CCC2)cc2c1-c1ccccc1C2(O)C(F)(F)F` (centres unmarked) [compound 141], in that order: less than 100 nM and 77 nM.
For `Cc1noc(-c2cccc3c2-c2ccccc2C3(O)C(F)(F)F)n1` (centres unmarked) [compound 142], in that order: 100 to 1000 nM and 543 nM.
For the compound `CS(=O)(=O)c1cccc2c1-c1ccccc1C2(O)C(F)(F)F` (centres unmarked) [compound 143], the IC50 is more than 1000 nM under setting [1] and more than 10000 nM under setting [2].
Consider `OC1(C(F)(F)F)c2ccccc2-c2ccc(-c3cccs3)cc21` (centres unmarked) [compound 144], for which the IC50 is, setting by setting: under setting [1], more than 1000 nM; under setting [2], 1120 nM.
On the same counts, the results for `OC1(C(F)(F)F)c2ccccc2-c2ccc(-c3ccsc3)cc21` (centres unmarked) [compound 145] are more than 1000 nM and 1380 nM.
